# Values of other authors in article PMC4364779, “IMD-4690, a Novel Specific Inhibitor for Plasminogen Activator Inhibitor-1, Reduces Allergic Airway Remodeling in a Mouse Model of Chronic Asthma via Regulating Angiogenesis and Remodeling-Related Mediators” (PLoS ONE, 2015).
# Tested on: murine model of chronic asthma
# Design: method as in PMID 22323366
# Conditions: cited from earlier work
smiles,measurement,value
O=C(O)C(=O)c1cn(Cc2ccccc2)c2ccc(-c3ccc(OC(F)(F)F)cc3)cc12 [tiplaxtinin],Allergic airway inflammation and lung collagen deposition,attenuated
